Measured values from US11584733B2, “Selective histone deacetylase inhibitors for the treatment of human disease” (Shuttle Pharmaceuticals, Inc., priority 2017, dated 2023).

Target: T1, Human recombinant HDAC6 (Homo sapiens, UniProt Q9UBN7)
T1 sequence (Q9UBN7 1-1215): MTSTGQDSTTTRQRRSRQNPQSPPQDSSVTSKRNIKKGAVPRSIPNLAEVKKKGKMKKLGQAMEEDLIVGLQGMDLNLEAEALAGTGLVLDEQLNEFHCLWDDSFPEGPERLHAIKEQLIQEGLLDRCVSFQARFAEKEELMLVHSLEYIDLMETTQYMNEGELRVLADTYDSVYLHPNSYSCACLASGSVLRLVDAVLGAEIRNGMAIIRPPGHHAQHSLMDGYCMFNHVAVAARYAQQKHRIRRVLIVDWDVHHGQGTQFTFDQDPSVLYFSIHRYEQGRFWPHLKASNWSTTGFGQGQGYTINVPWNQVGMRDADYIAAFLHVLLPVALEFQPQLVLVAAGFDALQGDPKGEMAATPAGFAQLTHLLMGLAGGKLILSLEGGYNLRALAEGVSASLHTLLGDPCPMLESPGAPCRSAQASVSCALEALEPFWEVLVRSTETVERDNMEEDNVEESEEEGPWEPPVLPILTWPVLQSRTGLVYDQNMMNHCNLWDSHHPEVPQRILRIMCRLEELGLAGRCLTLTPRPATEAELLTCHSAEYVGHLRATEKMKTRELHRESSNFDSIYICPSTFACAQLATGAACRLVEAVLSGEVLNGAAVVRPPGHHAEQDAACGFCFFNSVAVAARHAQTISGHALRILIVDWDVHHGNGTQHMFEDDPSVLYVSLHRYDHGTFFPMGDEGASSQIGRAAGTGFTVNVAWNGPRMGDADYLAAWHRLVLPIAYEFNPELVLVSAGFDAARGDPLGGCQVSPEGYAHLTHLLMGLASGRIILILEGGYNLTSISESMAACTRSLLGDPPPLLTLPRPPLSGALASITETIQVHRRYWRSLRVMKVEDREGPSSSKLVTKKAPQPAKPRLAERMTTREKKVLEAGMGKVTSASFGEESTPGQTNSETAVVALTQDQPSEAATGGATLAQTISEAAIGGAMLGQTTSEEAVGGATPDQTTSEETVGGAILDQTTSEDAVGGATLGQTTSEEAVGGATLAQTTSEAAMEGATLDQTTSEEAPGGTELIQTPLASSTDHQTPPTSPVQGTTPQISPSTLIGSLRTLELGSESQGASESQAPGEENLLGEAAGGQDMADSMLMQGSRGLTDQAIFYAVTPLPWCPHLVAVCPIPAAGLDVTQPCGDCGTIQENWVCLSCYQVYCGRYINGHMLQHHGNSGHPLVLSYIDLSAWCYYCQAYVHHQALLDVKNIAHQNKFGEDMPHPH
Assay: HDAC isomer assay, Fluor-de-Lys, HDAC6
Assay type: biochemical
Settings: proof of concept; FIGS. 11 and 12; read-out: EC50 against HDAC6
Protocol: The HDAC isomer (HDAC1, 3, and 6) assays were performed as follows:
Materials: Human recombinant HDAC isomer (HDAC1, HDAC3, and HDAC6); Fluor-de-Lys HDAC substrates; 360 nm excitation 460 nm emission Plate Reader; Disposable pipettes; Pipet-aid; Pipette tips; Micro-pipetter; DMSO; Sterile micro-tubes and conical tubes; and Micro-centrifuge.
Test compounds and control preparation: All test compounds' stock solutions were made in 100% DMSO. Test compound dilutions were made in HDAC Assay buffer with a final concentration of DMSO less than or equal to 1%. Vehicle control was HDAC Assay buffer with 1% DMSO.
The reagents for the assay were prepared as follows:
1. All kit components were defrosted and these, and all dilutions described below, were kept on ice until use.
2. A sufficient amount of HDAC source diluted in Assay Buffer (BML-KI143) was prepared to provide for the assays that were performed (# of wells×15 μl). A 30-fold dilution of the HeLa Extract means that 15p L contains 0.5 μl of the undiluted Extract, an appropriate amount to use per well.
3. Dilution(s) of SAHA and/or Test Inhibitors were prepared in Assay Buffer (BML-KI143). Since 10 μl were used per well, and since the final volume of the HDAC reaction was 50p, these inhibitor dilutions were 5× their final concentration.
4. Dilution(s) of the Fluor de Lys® Substrate (BML-KI104; 50 mM) were prepared in Assay Buffer (BML-KI143) that were 2× the desired final concentration(s). For inhibitor screening, substrate concentrations at or below the Km are recommended. Twenty-five μL were used per well. […] Rapid mixing and dilution into room temperature buffer helped to prevent precipitation at high substrate concentration.
5. Shortly before use (<30 min.), sufficient Fluor de Lys® Developer was prepared for the assays to be performed (50 μl per well). First, the Fluor de Lys® Developer Concentrate was diluted 20-fold (e.g. 50 μl plus 950 μl Assay Buffer) in cold Assay Buffer (BML-K1143). […] The addition of SAHA to the Developer insures that HDAC activity stops when the Developer is added. The Developer was kept on ice until use.
1. Assay buffer, diluted trichostatin A or test inhibitor was added to appropriate wells of the microtiter plate.
2. Diluted HeLa extract or other HDAC sample was added to all wells except those that are to be “No Enzyme Controls.”
3. Diluted Fluor de Lys® Substrate and the samples in the microtiter plate were allowed to equilibrate to assay temperature (e.g. 25 or 37° C.).
4. HDAC reactions were initiated by adding diluted substrate (25 μl) to each well and mixing thoroughly.
5. HDAC reactions were allowed to proceed for desired length of time and then stop them by addition of Fluor de Lys® Developer (50 μl). The plates were incubated at room temperature (25° C.) for 10-15 min.
6. Samples were read in a microtiter-plate reading fluorimeter capable of excitation at a wavelength in the range 350-380 nm and detection of emitted light in the range 440-460 nm.

For `O=C1CCCC(=O)N1` [glutaramide, glutarimide, reference compound], the EC50 was > 25 µM.
`Nc1cccc2c1CN(C1CCC(=O)NC1=O)C2=O` (centres unmarked) [lenalidomide, reference compound] was tested, and the EC50 was > 25 µM.
